# Where two headings read alike, the source gives them in different places.
# Tests used:
# [1] = molecular target: Beta Secretase enzyme (BACE) (Homo sapiens, UniProt P56817); test: In vitro enzymatic BACE FRET (fluorescence resonance energy transfer) assay; type: biochemical;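 further: fluorescence read after 1 h with 50 nM quenched peptide substrate spanning the BACE cleavage site, in pH 4.2 acetate buffer containing 10% DMSO and nonionic detergent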
# [2] = tested on: Aβ40 in conditioned medium of cells stably expressing Amyloid Precursor Protein (APP); test: In vitro BACE cell-based assay (Aβ40 in conditioned medium, sandwich ELISA); conditions: Homo sapiens;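 further: compounds added as a dilution series, secreted peptide quantified by europium time-resolved fluorescence readout, potency fitted from percent of control versus compound concentration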
# CYP3A4 (CYP3A) = CYP3A4 (CYP3A) (Homo sapiens, UniProt P08684); test: in vitro; conditions: microsomes, pH 7.4;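 further: inhibition of CYP3A-mediated 1-hydroxymidazolam formation after 10 min incubation with NADPH, quantified by HPLC MS relative to metabolite produced without test compound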
# CYP3A4 (CYP3A), sequence (P08684 2-503): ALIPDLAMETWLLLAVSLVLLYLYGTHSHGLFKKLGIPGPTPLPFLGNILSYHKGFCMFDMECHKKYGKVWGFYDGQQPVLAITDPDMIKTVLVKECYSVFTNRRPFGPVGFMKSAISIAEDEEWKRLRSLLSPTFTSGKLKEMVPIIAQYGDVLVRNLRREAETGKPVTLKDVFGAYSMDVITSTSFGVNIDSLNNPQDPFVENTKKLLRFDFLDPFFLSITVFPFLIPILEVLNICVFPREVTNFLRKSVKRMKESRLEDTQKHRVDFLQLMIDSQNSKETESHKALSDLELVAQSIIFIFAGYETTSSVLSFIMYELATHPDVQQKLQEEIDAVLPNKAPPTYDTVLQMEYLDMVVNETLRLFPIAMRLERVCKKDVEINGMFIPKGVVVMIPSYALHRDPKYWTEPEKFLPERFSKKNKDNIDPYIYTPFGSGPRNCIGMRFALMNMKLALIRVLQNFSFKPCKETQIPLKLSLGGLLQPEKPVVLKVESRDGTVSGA
# [3] = Microsomal stability assay, rat liver microsomes;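 further: rat liver microsomes (0.25 mg/mL) with about 1 µM compound plus 1 mM NADPH, pH 7.4, 37 °C for 30 min, parent left measured by LC-MS/MS against 0 min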
# [4] = Microsomal stability assay, human liver microsomes;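 further: pooled human liver microsomes at 0.25 mg/mL with 1 µM compound and NADPH at 37 °C, pH 7.4, for 30 min, unchanged parent quantified by LC-MS/MS against the 0 min sample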
# CYP2D6 = CYP2D6 (Homo sapiens, UniProt P10635); test: CYP2D6 inhibition assay (bufuralol, pooled human liver microsomes)
# CYP2D6, sequence (P10635 whole entry): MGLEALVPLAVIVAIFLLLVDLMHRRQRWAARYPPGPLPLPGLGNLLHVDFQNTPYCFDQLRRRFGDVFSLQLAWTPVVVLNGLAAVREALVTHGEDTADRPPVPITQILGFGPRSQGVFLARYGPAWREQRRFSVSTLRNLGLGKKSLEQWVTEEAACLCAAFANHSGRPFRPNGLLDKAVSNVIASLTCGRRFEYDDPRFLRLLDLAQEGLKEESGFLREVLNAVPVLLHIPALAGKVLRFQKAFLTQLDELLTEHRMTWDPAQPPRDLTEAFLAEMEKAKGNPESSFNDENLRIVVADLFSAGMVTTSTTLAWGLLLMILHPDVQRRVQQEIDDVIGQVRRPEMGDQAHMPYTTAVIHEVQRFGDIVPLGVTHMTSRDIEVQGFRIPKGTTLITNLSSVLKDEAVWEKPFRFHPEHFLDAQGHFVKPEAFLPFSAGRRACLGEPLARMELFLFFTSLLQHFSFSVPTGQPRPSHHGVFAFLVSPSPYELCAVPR
# [5] = BACE enzyme assay, IC50's in uM, read-out: BACE1 FRET assay
# [6] = 2D6 IC50, CYP enzyme inhibition
# [7] = Table 2, read-out: BACE1 FRET assay
# [8] = HEK293, Table 2, HEK cells, read-out: HEK cell assay
# [9] = 2D6 IC50 (uM), CYP enzyme inhibition
# [10] = BACE enzyme assay IC50, read-out: BACE1 FRET assay
# [11] = HEK293, HEK cell-based assay IC50, read-out: HEK cell assay
# [12] = 2D6 IC50 (uM), CYP2D6 inhibition
# [13] = read-out: BACE1 FRET assay (IC50)
# [14] = HEK293, HEK cells, read-out: HEK cell assay (IC50)
# [15] = HEK293, HEK cell-based assay, IC50's in uM, read-out: HEK cell assay
# Beta Secretase enzyme (BACE), sequence (P56817 46-501): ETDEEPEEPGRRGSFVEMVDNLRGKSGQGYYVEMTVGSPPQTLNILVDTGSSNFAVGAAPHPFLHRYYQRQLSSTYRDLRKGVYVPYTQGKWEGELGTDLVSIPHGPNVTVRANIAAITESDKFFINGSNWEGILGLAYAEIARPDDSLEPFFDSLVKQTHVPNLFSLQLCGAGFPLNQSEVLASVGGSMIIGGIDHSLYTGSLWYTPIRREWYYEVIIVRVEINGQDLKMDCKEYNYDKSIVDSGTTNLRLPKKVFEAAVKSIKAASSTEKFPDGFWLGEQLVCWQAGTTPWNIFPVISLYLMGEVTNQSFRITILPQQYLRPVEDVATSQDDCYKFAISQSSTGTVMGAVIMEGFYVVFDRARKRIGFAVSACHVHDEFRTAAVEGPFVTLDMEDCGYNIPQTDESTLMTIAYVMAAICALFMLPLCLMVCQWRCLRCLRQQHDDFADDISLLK
SMILES,IC50 (CYP3A4 (CYP3A)) [nM],RLM ([3]; rat liver microsomal data) [µL/min/mg],HLM ([4]; human liver microsomal data) [µL/min/mg],RLM ([3]; rat liver microsomes) [µL/min/mg],HLM ([4]; human liver microsomes) [µL/min/mg],"IC50 [1, 13] [µM]","IC50 [2, 14] [µM]","IC50 (CYP2D6; 2D6 IC50, CYP2D6 inhibition) [µM]",also measured
COCC(=O)N[C@@H](Cc1cc(F)cc(-c2nccs2)c1)C(=O)CN[C@H]1CC2(CCC2)Oc2ncc(CC(C)C)cc21 [compound 918],100,128,116,,,,,,"IC50 [1, 5]: 0.0164 µM; IC50 ([2]; HEK293, cell-based assay, HEK cells, IC50's in uM, read-out: HEK cell assay): > 10 µM; IC50 (CYP2D6; [6]): 0.5 µM"
COCC(=O)N[C@@H](Cc1cccc(C#N)c1)[C@H](O)CN[C@H]1CC2(CC(F)(F)C2)Oc2ncc(CC(C)(C)C)cc21 [compound 470],1100,560,579,,,,,,"IC50 [1, 7]: 0.004 µM; IC50 [2, 8]: 0.014 µM; IC50 (CYP2D6; [6]): 5.8 µM"
CO[C@H](C)C(=O)N[C@@H](Cc1cc(F)cc(F)c1)[C@H](O)CN[C@H]1CC2(CCC2)Oc2ncc(CC(C)(C)C#N)cc21 [compound 511],2400,203,382,,,,,,"IC50 ([1]; BACE enzyme assay, read-out: BACE1 FRET assay): 0.007 µM; IC50 ([2]; HEK293, HEK cells, read-out: HEK cell assay): 0.011 µM; IC50 (CYP2D6; [9]): 14.5 µM"
COCC(=O)N[C@@H](Cc1ccc(F)c(F)c1)[C@H](O)CN[C@H]1CC(C)(C)Oc2ncc(CC(C)(C)C)cc21 [compound 676],2000,,,411,463,,,,"IC50 [1, 10]: 0.01 µM; IC50 [2, 11]: 0.011 µM; IC50 (CYP2D6; [12]): 2.9 µM"
COCC(=O)N[C@@H](Cc1ccc2c(c1)OCO2)[C@H](O)CN[C@H]1CC2(CCC2)Oc2c1cc(CC(C)C)nc2Cl [compound 656],100,,,180,131,0.051,0.774,5.3,
COCC(=O)N[C@@H](Cc1ccc2c(c1)OCO2)[C@H](O)CN[C@H]1CC2(CCC2)Oc2c(-c3ccccn3)cc(CC(C)C)cc21 [compound 767],100,150,157,,,,,,"IC50 [1, 5]: 0.198 µM; IC50 [2, 15]: 0.251 µM; IC50 (CYP2D6; [9]): 3.6 µM"
CC(C)(C)CCC(=O)N[C@@H](Cc1ccccc1)[C@H](O)CN[C@H]1CC2(CCC2)Oc2ncc(CC(C)(C)C)cc21 [compound 819],200,543,736,,,,,,"IC50 [1, 5]: 0.013 µM; IC50 [2, 15]: 0.074 µM; IC50 (CYP2D6; [9]): 2 µM"
COCC(=O)N[C@@H](Cc1cccc(F)c1)[C@H](O)CN[C@H]1CC2(CCC2)Oc2c1cc(CC(C)(C)F)cc2-n1ccnc1 [compound 588],100,,,74,25,0.027,0.006,0.6,
Cc1cccc(CN2CCO[C@H](C(=O)N[C@@H](Cc3ccc(F)cc3)[C@H](O)CN[C@H]3CC4(CCC4)Oc4ncc(CC(C)(C)C)cc43)C2)c1 [compound 691],200,,,426,543,,,,"IC50 [1, 10]: 0.078 µM; IC50 [2, 11]: 0.104 µM; IC50 (CYP2D6; [12]): 3 µM"
COCC(=O)N[C@@H](Cc1cccc(F)c1)[C@H](O)CN[C@H]1CC2(CCC2)Oc2c(-c3ccnc(OC)c3)cc(CC(C)(C)C)cc21 [compound 654],1000,,,477,399,0.006,0.034,9.9,
"CC(=O)N[C@@H](Cc1cccc(-c2cncs2)c1)[C@H](O)CN[C@H]1CC2(CCC2)Oc2ncc(CC(C)(C)C)cc21 [compound 658, N-((1S,2R)-3-(((4′S)-6′-(2,2-dimethylpropyl)-3′,4′-dihydrospiro[cyclobutane-1,2′-pyrano[2,3-b]pyridin]-4′-yl)amino)-2-hydroxy-1-(3-(1,3-thiazol-5-yl)benzyl)propyl)acetamide]",100,,,120,130,0.006,0.01,0.3,
CC(C)(C)Cc1cnc2c(c1)[C@@H](NC[C@@H](O)[C@H](Cc1ccc3c(c1)OCO3)NC(=O)[C@H]1CCC(=O)C1)CC1(CCC1)O2 [compound 450],400,170,76,,,,,,"IC50 [1, 7]: 0.15 µM; IC50 [2, 8]: 0.183 µM; IC50 (CYP2D6; [6]): 8.6 µM"
COCC(=O)N[C@@H](Cc1cccc(F)c1)[C@H](O)CN[C@H]1CC2(CCC2)Oc2c1cc([C@@H](O)C(C)(C)C)cc2-n1ccnc1 [compound 593],100,,,29,14,1.59,0.312,1,
